Among the data in BindingDB's records for PubMed 35660250 (COMSATS University Islamabad, 2022) are EC50 values, retold here.

The nature of assay [1]: Antagonist activity against human P2X4R stably transfected in human 1321N1 cells assessed as ATP EC50 at 0.05 uM incubated for 30 mins by Fura-2 AM staining based calcium influx assay.
Assay [2] is described as follows: Antagonist activity against human P2X4R stably transfected in human 1321N1 cells assessed as ATP EC50 at 0.1 uM incubated for 30 mins by Fura-2 AM staining based calcium influx assay.
A short description of assay [3]: Antagonist activity against human P2X4R stably transfected in human 1321N1 cells assessed as ATP EC50 at 0.2 uM incubated for 30 mins by Fura-2 AM staining based calcium influx assay.
Assay [4] in a line: Antagonist activity against human P2X7R stably transfected in human 1321N1 cells assessed as BzATP EC50 at 0.2 uM incubated for 30 mins by Fura-2 AM staining based calcium influx assay.
Assay [5] is described as follows: Antagonist activity against human P2X7R stably transfected in human 1321N1 cells assessed as BzATP EC50 at 0.1 uM incubated for 30 mins by Fura-2 AM staining based calcium influx assay.
Assay [6] is described as follows: Antagonist activity against human P2X7R stably transfected in human 1321N1 cells assessed as BzATP EC50 at 0.05 uM incubated for 30 mins by Fura-2 AM staining based calcium influx assay.

Each structure is given as a SMILES string.

Take `O=C(NC(=S)Nc1c(Br)ccc(C(F)(F)F)c1Br)c1ccc2c(c1)OCO2`: the EC50 (commonly the concentration that produces a half-maximal response) worked out at 10.8 µM in assay [1], 10.1 µM in assay [2] and 10.8 µM in assay [3].
For `O=C(NC(=S)Nc1cccc2cccnc12)c1ccc2c(c1)OCO2`, the concentration giving a half-maximal response (EC50) in assay [4] worked out at 9.14 µM; in assay [5], 9.44 µM; in assay [6] it was 8.31 µM.
